Experiments:
[1] = target: T1, Cloned human M1 receptor (CHRM1) (Homo sapiens, UniProt P11229); experiment: CHRM1 Ca++ Flux Assay (HEK293 M1 cells, agonist mode); assay type: cell-based; conditions: for Emax: Percent Activity (PA), read-out: M1 FDSS PA %; for EC50: geometric mean if tested more than once, read-out: M1 FDSS EC50
T1 construct: expressed in transfected cells; host or cells: HEK293
T1 sequence (P11229 1-460): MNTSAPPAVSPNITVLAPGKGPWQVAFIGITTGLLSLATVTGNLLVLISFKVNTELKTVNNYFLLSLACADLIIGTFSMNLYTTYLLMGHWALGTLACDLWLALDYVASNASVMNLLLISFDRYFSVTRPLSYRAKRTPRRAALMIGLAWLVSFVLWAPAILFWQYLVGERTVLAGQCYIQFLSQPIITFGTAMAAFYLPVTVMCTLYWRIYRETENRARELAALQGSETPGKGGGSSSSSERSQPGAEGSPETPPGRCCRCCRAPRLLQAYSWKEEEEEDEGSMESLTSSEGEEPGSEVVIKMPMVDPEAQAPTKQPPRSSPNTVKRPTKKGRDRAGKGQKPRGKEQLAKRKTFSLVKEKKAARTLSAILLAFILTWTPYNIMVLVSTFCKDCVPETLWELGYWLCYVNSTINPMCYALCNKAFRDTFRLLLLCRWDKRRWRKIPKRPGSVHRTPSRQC
How it was run: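 In agonist mode, compound-induced intracellular Ca++ mobilization was recorded for 3 min by fluorescent imager. The cells were HEK293 stably expressing cloned human CHRM1, in Ca/Mg-free HBSS with 20 mM HEPES. Triplicate 11-point dose-responses were fitted by four-parameter regression and normalized to the carbachol EC100 response.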

[2] = target: T2, human cloned CHRM2 receptor (Homo sapiens, UniProt P08172); experiment: CHRM2 Ca++ Flux Assay (M2_CHO cells, agonist mode); assay type: cell-based; conditions: M2 CHO cells; for EC50: agonist mode, geometric mean if tested more than once, read-out: M2 FDSS EC50; for Emax: Percent Activity (PA) measured to EC100 of Carbachol, read-out: M2 FDSS PA %
T2 construct: expressed in transfected cells; host or cells: CHO-K1 (M2_CHO)
T2 sequence (P08172 1-466): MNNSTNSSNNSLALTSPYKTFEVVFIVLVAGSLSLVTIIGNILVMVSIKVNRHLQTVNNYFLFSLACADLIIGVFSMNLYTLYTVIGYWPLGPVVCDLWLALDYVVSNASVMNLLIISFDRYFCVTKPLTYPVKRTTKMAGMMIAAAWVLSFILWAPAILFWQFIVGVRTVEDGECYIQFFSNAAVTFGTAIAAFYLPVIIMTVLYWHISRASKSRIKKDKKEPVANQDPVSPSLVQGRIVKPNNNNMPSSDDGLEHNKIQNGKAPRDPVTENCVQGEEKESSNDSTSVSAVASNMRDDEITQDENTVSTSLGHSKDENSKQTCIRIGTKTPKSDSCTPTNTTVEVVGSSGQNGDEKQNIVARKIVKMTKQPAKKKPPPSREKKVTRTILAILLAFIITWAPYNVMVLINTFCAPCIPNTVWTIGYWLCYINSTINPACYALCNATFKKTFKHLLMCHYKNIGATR
How it was run: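 Agonist activity was expressed as percent of the carbachol EC100 response, fitted by four-parameter regression on triplicate wells, with geometric means across repeat runs. Calcium traces over 3 minutes came from dye-loaded M2_CHO cells (12K/well) pre-incubated 60 min in Ca/Mg-free HBSS with 20 mM HEPES, 2.5 mM probenecid and 20 μM ATP.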

| Emax [1] [%] | EC50 [1] [µM] | EC50 [2] [µM] | Emax [2] [%] | Compound |
| --- | --- | --- | --- | --- |
| 88 | 0.49 | 0.39 | 38 | Fc1ccc(OC2COC2)c(C2CCN([C@@H]3COC4(C3)CN(c3ncon3)C4)CC2)c1 [Example 6B, (S)-7-(4-(5-fluoro-2-(oxetan-3-yloxy)phenyl)piperidin-1-yl)-2-(1,2,4-oxadiazol-3-yl)-5-oxa-2-azaspiro[3.4]octane] |
| 65 | 2.42 | 1.51 | 18 | Fc1ccc(OC2CC3(COC3)C2)c(C2CCN([C@@H]3COC4(C3)CN(c3ncon3)C4)CC2)c1 [Example 6C, (S)-7-(4-(2-((2-oxaspiro[3.3]heptan-6-yl)oxy)-5-fluorophenyl)piperidin-1-yl)-2-(1,2,4-oxadiazol-3-yl)-5-oxa-2-azaspiro[3.4]octane] |
| 0 | > 25 | > 25 | 0 | Fc1ccc(OC2CC3(COC3)C2)c(C2CCN([C@H]3COC4(C3)CN(c3nnco3)C4)CC2)c1 [Example 7A, (R)-7-(4-(2-((2-oxaspiro[3.3]heptan-6-yl)oxy)-5-fluorophenyl)piperidin-1-yl)-2-(1,3,4-oxadiazol-2-yl)-5-oxa-2-azaspiro[3.4]octane] |

— patent publication US11485742B2, “2-azaspiro[3.4]octane derivatives as M4 agonists” (NOVARTIS AG, priority 2019, dated 2022)
